{"source": "patent US20240398775A1", "about": "“PHARMACEUTICAL COMPOSITION FOR USE IN TREATING COGNITIVE DECLINE OR FOR USE IN TREATING OVERWEIGHT OR OBESITY” (University of the Ryukyus, priority 2021, published 2024)", "key": {"[1]": {"test_system": "Ca2+ permeable AMPAR (CP-AMPAR)", "test": "Ca2+ imaging (Fluo-3) of hippocampal brain slices, AMPA + CTZ application (CP-AMPA reaction)", "assay_type": "cell-based, mouse"}, "[2]": {"test_system": "GluA1", "test": "BS3 crosslinking assay / Western blot of GluA1 subunit", "assay_type": "in vivo, mouse", "conditions": "HFD-fed mice treated with PER, n=4; HFD gave 3-fold increase vs CD", "procedure": "Crosslinking using the BS^3 procedure carried out here was carried out based on previously described methods (60). Hippocampal slices of 17 to 18 week old male C57BL/6J background mice (CD, HFD, and HFD with PER treatment) or 12 to 13 week old ob/ob mice (ob/ob, and ob/ob with PER treatment) were prepared as previously reported (56, 57). Hippocampal slices were prepared and collected, and then CA1, CA2, CA3, DG, and EC regions were separated from the hippocampal slices using a dissection knife. […] The total protein concentration of the lysate was measured using the Lowry method (61). […] BS^3 samples were analyzed by SDS-PAGE directly without purification, and surface and intracellular bands were measured in the same lane, thus no normalization was required and sample throughput was improved. […] Membranes were incubated with HRP-labeled anti-rabbit IgG (1:3,000, Cell Signaling Technology, Danvers, MA, USA) for 30 min and extensively washed again with TBS-T. After soaking the membrane in the chemiluminescence detection substrate Chemi-Lumi One (Nacalai Tesque, Tokyo, Japan) for 1 min, luminescence was detected using a LuminoGraph1 imaging system (Atto, Tokyo, Japan). The surface and intracellular bands of each lane were analyzed using a CS Analyzer (Atto, Tokyo, Japan). […]"}, "[3]": {"test_system": "Thy-1+-eYFP neuronal cells", "test": "Quantification of Thy1-eYFP neurons (CLARITY)", "assay_type": "in vivo, mouse", "conditions": "HFD mice treated with PER, p<0.001, n=4", "text": "Coronal sections of mouse brains from Bregma-0.94 mm to Bregma-4.04 mm (5 mm wide, including the entire hippocampus from dorsal to ventral, medial to lateral) were fixed with 4% paraformaldehyde for 2 days, and then stained with the Golgi Cox staining system (FD Rapid GolgiStain™ Kit, MD 21041, USA). The impregnated tissues were cut into 100 μm sections and counterstained with crystal violet, and the total number of 15 μm spines on the apical dendrites of CA1 and DG and the percentage of morphologic spines (thin, stubby, mushroom) were examined using an Axio Observer Z1 (Carl Zeiss, Germany). Another set of paraformaldehyde-fixed 5 mm wide coronal sections of the brain, including the entire hippocampus, were processed using the passive CLARITY technique (PACT) (62) and examined through Lightsheet Z.1 (Carl Zeiss, Germany) using a 10× clear objective lens, and 3D images of Thy1-YFPH transgenic mice (the Jackson Laboratory, stock number: 003709, strain name: B6. Cg-Tg. (Thy1-YFP) 16Jrs/J) (63, 64), HFD-fed mice, and whole hippocampus of the HFD-fed mice with PER treatment. were acquired respectively. Maximum intensity projection images were acquired along the Z dimension, time dimension, and channel dimension to create an output image with the pixel containing the maximum value for all images in the stack at a particular pixel position. […]"}, "[4]": {"conditions": "HFD-fed mice with oral PER 5 mg/kg/day, AMPA 100 μM + CTZ 100 μM, N = 5"}}}
{"smiles": "N#Cc1ccccc1-c1cc(-c2ccccn2)cn(-c2ccccc2)c1=O", "note": "[PER, 3-(2-cyanophenyl)-5-(2-pyridyl)-1-phenyl-1,2-dihydropyridine-2-one]", "values": [{"measurement": "increase in [Ca2+]i via pathological AMPARs", "setting": "[1]", "result": "completely disappeared"}, {"measurement": "inhibitory effect on CP-AMPAR in EC, CA1, CA2, CA3 and DG", "setting": "[1]", "result": "significant inhibitory effect"}, {"measurement": "CP-AMPA reaction CA1 (maximum value of NF525)", "setting": "[1]; [4]", "result": "1.00 ± 0.01"}, {"measurement": "CP-AMPA reaction CA2 (maximum value of NF525)", "setting": "[1]; [4]", "result": "1.00 ± 0.02"}, {"measurement": "CP-AMPA reaction CA3 (maximum value of NF525)", "setting": "[1]; [4]", "result": "1.00 ± 0.01"}, {"measurement": "CP-AMPA reaction DG (maximum value of NF525)", "setting": "[1]; [4]", "result": "1.02 ± 0.01"}, {"measurement": "CP-AMPA reaction EC (maximum value of NF525)", "setting": "[1]; [4]", "result": "1.05 ± 0.05"}, {"measurement": "elevation of [Ca2+]i via AMPAR", "setting": "[1]; acute slices from HFD-fed mice, 100 μM PER applied", "result": "completely disappeared"}, {"measurement": "transmission via AMPAR", "setting": "[1]; hippocampal slices from mice fed HFD and PER 5 mg/kg/day orally by hydrogel", "result": "normalize transmission via AMPAR"}, {"measurement": "GluA1 in CA3 (BS3 crosslinking)", "setting": "[2]", "result": "reduced GluA1 to basal levels"}, {"measurement": "number of Thy-1+-eYFP neuronal cells in CA3", "setting": "[3]", "result": "significantly restored"}]}
